Data taken from the supplement of paper PMC4862054.
Several values for one entry are separate records, joined by “and”; a condition that tells them apart may be missing. Equal values may be shown once.

Key:
Experiment in all cases: normalised viability (% of control), CellTiter-Blue; higher = more viable cells (about 100 = DMSO control)
Conditions in all cases: incubation time: 72 h
[1] = test system: BT-474
How it was run: (§1)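 The reported figure is normalised viability at a single listed concentration of the series. Breast cancer cell lines (20 µl suspension) went onto 384-well plates holding compound in 5 µl medium for 72 h. CellTiter-Blue (2.5 µl, 2 h, 37 °C) was read by fluorescence at 560/590 nm, and each plate was scaled to vehicle at 100 and a positive kill control at 0.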

[2] = test system: BT-549
How it was run: as §1

[3] = test system: CAL-120
How it was run: as §1

[4] = test system: CAL-148
How it was run: as §1

[5] = test system: CAL-51
How it was run: as §1

[6] = test system: CAL-85-1
How it was run: as §1

[7] = test system: DU-4475
How it was run: as §1

[8] = test system: HCC1143
How it was run: as §1

[9] = test system: HCC1599
How it was run: as §1

[10] = test system: HCC1937
How it was run: as §1

[11] = test system: HDQ-P1
How it was run: as §1

[12] = test system: Hs578T
How it was run: as §1

[13] = test system: MDA-MB-231
How it was run: as §1

[14] = test system: MDA-MB-436
How it was run: as §1

[15] = test system: MDA-MB-453
How it was run: as §1

[16] = test system: MDA-MB-468
How it was run: as §1

[17] = test system: MFM-223
How it was run: as §1

[18] = test system: SK-BR-3
How it was run: as §1

COc1nc(N)nc2c1ncn2[C@@H]1O[C@H](CO)[C@@H](O)[C@@H]1O [Nelarabine]
Conditions	normalised viability
[1], 10 nM	96.7% and 102%
[1], 1000 nM	92.1% and 93.3%
[1], 10000 nM	92.8% and 94.6%
[2], 10 nM	95.2% and 85.3%
[2], 1000 nM	98% and 91%
[2], 10000 nM	86.4% and 80.4%
[3], 10 nM	109% and 93.6%
[3], 1000 nM	96.1% and 105%
[3], 10000 nM	95.9% and 107%
[4], 3 nM	92% and 97%
[4], 30 nM	94.7% and 93.5%
[4], 100 nM	95.4% and 91.8%
[5], 3 nM	106% and 105%
[5], 30 nM	98.7% and 104%
[5], 100 nM	97.4% and 106%
[6], 3 nM	99.3% and 102%
[6], 30 nM	98.7% and 100%
[6], 100 nM	101% and 102%
[7], 3 nM	117% and 116%
[7], 30 nM	97% and 101%
[7], 100 nM	106% and 126%
[8], 1000 nM	103% and 88.2%
[8], 10000 nM	105% and 89.6%
[9], 10 nM	115% and 117%
[9], 1000 nM	108% and 123%
[9], 10000 nM	136% and 114%
[10], 1000 nM	109% and 93.9%
[10], 10000 nM	92.3% and 80.8%
[11], 3 nM	77.3% and 89.3%
[11], 30 nM	91.1% and 89.2%
[12], 10 nM	103% and 92.6%
[12], 1000 nM	103% and 95.2%
[12], 10000 nM	89.4% and 85.8%
[13], 10 nM	88.9% and 90.1%
[13], 1000 nM	87.8% and 95%
[13], 10000 nM	92.7% and 89.8%
[14], 10000 nM	91.2% and 94.8%
[15], 3 nM	93.2% and 104%
[15], 30 nM	99.5% and 116%
[15], 100 nM	93.8% and 101%
[16], 10 nM	97.3% and 99%
[16], 1000 nM	93.2% and 93.8%
[16], 10000 nM	94.3% and 93.1%
[17], 10 nM	108% and 111%
[17], 1000 nM	94.9% and 98.1%
[17], 10000 nM	103% and 104%
[18], 10 nM	93.9% and 93.6%
[18], 10000 nM	102% and 82.1%

c1cc(CN2CCCNCCNCCCNCC2)ccc1CN1CCCNCCNCCCNCC1 [Plerixafor]
normalised viability [%]
Conditions	0.75 nM	2.5 nM	7.5 nM	25 nM	250 nM	2500 nM
[1]	–	101	–	–	117	97.6
[2]	–	92.7	–	–	95.9	120
[3]	–	93.1	–	–	91.4	96
[4]	77.3	–	89.2	82.7	–	–
[5]	106	–	99	103	–	–
[6]	91.9	–	91.3	89.2	–	–
[7]	91.4	–	97.3	97.9	–	–
[8]	–	81	–	–	87.4	83.2
[9]	–	107	–	–	98.7	115
[10]	–	91.3	–	–	103	111
[11]	106	–	123	111	–	–
[12]	–	117	–	–	97.3	102
[13]	–	89.1	–	–	98.5	102
[14]	–	116	–	–	107	118
[15]	116	–	114	106	–	–
[16]	–	109	–	–	112	108
[17]	–	109	–	–	104	101
[18]	–	101	–	–	99.7	106

C[C@]12C=CC(=O)C=C1CC[C@@H]1[C@@H]2[C@@H](O)C[C@@]2(C)[C@H]1CC[C@]2(O)C(=O)CO [Prednisolone]
normalised viability [%]
Conditions	3 nM	10 nM	30 nM	100 nM	1000 nM	10000 nM
[1]	–	125	–	–	98.8	100
[2]	–	111	–	–	92.2	105
[3]	–	87.5	–	–	73.7	86.8
[4]	93.8	–	118	107	–	–
[5]	102	–	98.3	98.4	–	–
[6]	101	–	105	119	–	–
[7]	107	–	116	98.1	–	–
[8]	–	98	–	–	87.9	96.3
[9]	–	111	–	–	92.2	84.9
[10]	–	91.7	–	–	108	99.1
[11]	112	–	124	108	–	–
[12]	–	111	–	–	107	107
[13]	–	113	–	–	129	117
[14]	–	82.4	–	–	73.5	108
[15]	107	–	106	95.5	–	–
[16]	–	102	–	–	115	101
[17]	–	95.7	–	–	100	96.9
[18]	–	114	–	–	101	89.3

CCN(CC)CCNC(=O)c1c(C)[nH]c(/C=C2\C(=O)Nc3ccc(F)cc32)c1C [Sunitinib]
Conditions	normalised viability
[1], 1 nM	110% and 97.1%
[1], 100 nM	115% and 92.5%
[2], 1 nM	90.8% and 103%
[2], 100 nM	92.6% and 88.2%
[2], 1000 nM	89.9% and 111%
[3], 1000 nM	88.6% and 104%
[4], 0.3 nM	92.3% and 103%
[4], 3 nM	90.1% and 97.4%
[4], 10 nM	89.6% and 111%
[5], 0.3 nM	116% and 93.3%
[5], 10 nM	107% and 91.1%
[6], 0.3 nM	92% and 101%
[6], 3 nM	90.5% and 104%
[6], 10 nM	98.1% and 98.9%
[7], 0.3 nM	99.7% and 88.2%
[7], 3 nM	92.5% and 88.1%
[7], 10 nM	108% and 95.7%
[8], 100 nM	84.3% and 106%
[9], 1 nM	113% and 97.3%
[9], 100 nM	85.4% and 102%
[9], 1000 nM	101% and 90.8%
[10], 1 nM	93.7% and 84.2%
[10], 100 nM	82.3% and 102%
[10], 1000 nM	84.5% and 93.2%
[11], 0.3 nM	101% and 95.9%
[11], 3 nM	85.3% and 98.3%
[12], 1 nM	106% and 100%
[12], 100 nM	103% and 113%
[12], 1000 nM	108% and 107%
[13], 1 nM	90.4% and 86.8%
[13], 100 nM	89% and 90.3%
[13], 1000 nM	114% and 112%
[14], 1 nM	94.5% and 114%
[14], 100 nM	85.8% and 110%
[14], 1000 nM	98.5% and 108%
[15], 3 nM	90.5% and 94.7%
[15], 10 nM	95.2% and 82%
[16], 1 nM	104% and 89.3%
[16], 100 nM	104% and 95.4%
[16], 1000 nM	100%
[17], 1 nM	101% and 105%
[17], 100 nM	91.4% and 96.6%
[17], 1000 nM	62.7% and 68.1%
[18], 1 nM	94.8% and 101%
[18], 100 nM	98.3% and 96.8%
[18], 1000 nM	90.2% and 90.4%
